Measurements reported in the OPERA property sets (Mansouri et al. 2018).

Settings: not given

Compound | melting point [°C] | boiling point [°C] | log10 vapour pressure (mmHg) | log10 Henry constant (atm·m³/mol) | ready biodegradability | log10 Koc (L/kg) | log10 Koa
C#C[C@]1(O)CC[C@H]2[C@@H]3CCC4=C(CCC(=O)C4)[C@H]3CC[C@@]21C | 170 |  |  |  |  |  | 
CCC(C)C(C)(C)CC (stereo unspecified) | -101 | 140 | 0.948 |  |  |  | 
COc1cc(CCn2cccc2C(=O)O)cc(OC)c1OC | 132 |  |  |  |  |  | 
CC(C)CCC[C@@H](C)[C@H]1CC[C@H]2[C@@H]3CC=C4C[C@@H](OC(=O)Cc5ccc(N(CCCl)CCCl)cc5)CC[C@]4(C)[C@H]3CC[C@]12C | 90 |  |  |  |  |  | 
FC(F)Cl | -157 | -40.7 | 3.86 | -1.39 | not readily biodegradable |  | 
CC=CC(OCC)OCC |  | 148 |  |  |  |  | 
CO[C@H]1C=C[C@H](OC)O1 |  | 161 |  |  |  |  | 
Cc1ccc(S(=O)(=O)Oc2c(C(=O)c3ccc(Cl)cc3Cl)c(C)nn2C)cc1 | 118 |  |  |  |  |  | 
Oc1c(C2CCCCC2)cccc1C1CCCCC1 |  |  |  |  | not readily biodegradable |  | 
C[C@@H]1CC[C@H]2[C@@H]1[C@H]1[C@@H](CC[C@@]2(C)O)C1(C)C | 105 | 292 |  |  |  |  | 
COc1nc(C)nc(N)n1 | 260 |  |  |  |  |  | 
O=C(O)c1cc(-c2ccc(F)cc2F)ccc1O | 216 |  |  |  |  |  | 
O=c1c(O)c(-c2ccccc2)oc2ccccc12 | 172 |  |  |  |  |  | 
CCCOC(=O)NCCCN(C)C |  |  | -1.26 | -8.83 |  | 2.49 | 
CC(C)(C)NCCNC(C)(C)C |  | 197 | -0.575 |  |  |  | 
Clc1ccc2ccc(Cl)c(Cl)c2c1Cl |  |  |  |  |  |  | 8.65
CC(=O)Nc1ccc(S(=O)(=O)Cl)cc1 | 149 |  |  |  |  |  | 
O=CCCl | -16.3 | 85.5 | 1.81 |  |  |  | 
O=Cc1c(F)c(F)cc(F)c1F |  | 178 |  |  |  |  | 
CCCCCC(=O)OCC(COC(=O)CCCCC)OC(=O)CCCCC | -60 |  |  |  |  |  | 
O=c1cccccc1O | 50.8 |  |  |  |  |  | 
CC1CC(C)(C)CCC1=O (stereo unspecified) |  | 191 |  |  |  |  | 
O=C(O)c1c(F)c(F)c(F)c(F)c1C(=O)O | 163 |  |  |  |  |  | 
CCOCC(=O)O |  | 206 |  |  |  |  | 
CCCCCCCCCC(=O)Cl | -34.5 |  |  |  |  |  | 

Compound | melting point [°C] | boiling point [°C] | log10 vapour pressure (mmHg) | log10 Henry constant (atm·m³/mol) | ready biodegradability | log10 Koc (L/kg) | log10 Koa
Cn1cccc1-c1cccnc1 |  | 281 |  |  |  |  | 
CC(=O)Oc1ccc([N+](=O)[O-])cc1 | 78 |  |  |  |  |  | 
Nc1ccc(C2CCCCC2)cc1 | 54.5 |  |  |  |  |  | 
CC(c1ccccc1)(c1ccccc1)c1ccccc1 | 95 |  |  |  |  |  | 
C=CC(=O)OCC(CC)CCCC (stereo unspecified) | -90 | 214 | -0.75 |  | readily biodegradable |  | 
COCCOCCOCCO | -44 | 249 |  |  | readily biodegradable |  | 
CCC(=O)O[C@H]1CC[C@@]2(C)C(=CC[C@H]3[C@@H]4CC[C@H](OC(=O)CC)[C@@]4(C)CC[C@@H]32)C1 | 113 |  |  |  |  |  | 
CCCCCCCCCCCCCCCC(=O)OCCC | 20.4 |  |  |  |  |  | 
C[Si](C)(C)C | -99 | 26.6 | 2.86 |  |  |  | 
CC(C)CC(C)(C)C(C)C |  | 153 |  |  |  |  | 
COc1cc(Cc2cnc(N)nc2N)cc(OC)c1OC | 201 |  |  |  |  |  | 
O=C(Cl)CCl | -22 | 106 | 1.4 |  |  |  | 
COc1cc(Cl)c(Cl)c(Cl)c1OC | 66 |  |  |  |  |  | 
Nc1cc(Cl)cc(C(=O)O)c1Cl | 200 | 312 |  |  | not readily biodegradable | 1.48 | 
CCCC(C)(C)Br |  | 142 |  |  |  |  | 
C=CCOc1nc(OCC=C)nc(OCC=C)n1 | 27 |  |  |  |  |  | 
CCOc1ccc(NS(=O)(=O)c2ccc(N)cc2)nn1 | 183 |  |  |  |  |  | 
CCCCC(CC)COCCO (stereo unspecified) |  | 229 |  |  |  |  | 
CC(=O)OC1CCC(C(C)(C)C)CC1 (stereo unspecified) | -50 |  | -2.12 |  |  |  | 
C=C(C)CC1(CC)C(=O)NC(=S)NC1=O | 160 |  |  |  |  |  | 
c1ccc(CN(Cc2ccccc2)c2ccccc2)cc1 | 69 |  |  |  |  |  | 
FC(F)(Cl)C(Cl)(Cl)Cl | 40.6 | 91.5 | 1.78 |  |  |  | 
CC[C@H]1CCCC[C@H]1C |  | 154 |  |  |  |  | 
CC1=NN(c2ccc([N+](=O)[O-])cc2)C(=O)C1[N+](=O)[O-] (stereo unspecified) | 116 |  |  |  |  |  | 
C=O |  | -19.1 |  | -6.47 | readily biodegradable |  | 

Compound | melting point [°C] | boiling point [°C] | log10 vapour pressure (mmHg) | log10 Henry constant (atm·m³/mol) | ready biodegradability | log10 Koc (L/kg) | log10 Koa
CC1(C)C2CC3C(C2)C31C | 67.5 | 152 |  |  |  |  | 
COCCN |  | 95 |  |  |  |  | 
C#CC(C)(C)NC(=O)c1cc(Cl)cc(Cl)c1 | 155 |  | -6.36 |  |  | 2.31 | 
CCCCOc1ccccc1 | -19.4 | 210 | -0.529 |  |  |  | 
CCOC(=O)C(C(C)=O)C(C)=O |  | 210 |  |  |  |  | 
CCC(C)(O)CC | -23.6 | 122 | 0.745 |  |  |  | 
CCCCCCCCCCCCCCCCCCCCCCCCCCCCCCCCCCCCCCCCCCCC | 87.5 | 548 |  |  | readily biodegradable |  | 
ClCCCCCCCCCCCl | 15.6 |  |  |  |  |  | 
C[C@@H]1CC[C@H]2C(C)(C)[C@H]3C[C@@]12CC[C@@]3(C)O | 86 |  |  |  |  |  | 
CCCC(C)(CO)CO | 62.5 | 234 |  |  |  |  | 
CCOc1ccc(F)cc1 | -8.5 | 173 |  |  |  |  | 
CCCC(C)C(=O)Nc1ccc(C)c(Cl)c1 (stereo unspecified) | 85 |  |  |  |  | 2.76 | 
CC(C)S[C@@H]1O[C@H](CO)[C@H](O)[C@H](O)[C@H]1O | 121 |  |  |  |  |  | 
NS(=O)(=O)c1cc(-c2nnn[nH]2)c(NCc2cccs2)cc1Cl | 220 |  |  |  |  |  | 
Oc1cccnc1 |  |  |  |  | readily biodegradable |  | 
CC1(C)[C@@H]2CC[C@@](C)(C2)[C@@H]1O | 45.8 |  |  |  |  |  | 
[N-]=[N+]=Nc1ccc(Cl)cc1 | 20 |  |  |  |  |  | 
Cc1cc(=O)c2ccccc2[nH]1 | 234 |  |  |  |  |  | 
C#CC(C)OC(=O)Nc1cccc(Cl)c1 (stereo unspecified) | 45.5 |  | -4.8 |  |  | 2.21 | 
NC(=O)c1cccc2ccccc12 | 206 |  |  |  |  |  | 
Clc1cc(Cl)c2c(c1)Oc1cc(Cl)c(Cl)cc1O2 | 194 |  | -8.2 |  |  |  | 
O=C(OC(=O)C(Cl)(Cl)Cl)C(Cl)(Cl)Cl |  |  | -0.908 |  |  |  | 
CCN(CCO)CCCC(C)Nc1ccnc2cc(Cl)ccc12 (stereo unspecified) | 90 |  |  |  |  |  | 
COCCOC1=C(N2CC2)C(=O)C(OCCOC)=C(N2CC2)C1=O | 80 |  |  |  |  |  | 
COc1cc(OC)cc(C(=O)O)c1 | 186 |  | -6.86 |  |  |  | 

Compound | melting point [°C] | boiling point [°C] | log10 vapour pressure (mmHg) | log10 Henry constant (atm·m³/mol) | ready biodegradability | log10 Koc (L/kg) | log10 Koa
C=C=C(C)CC |  | 70 |  |  |  |  | 
O=C(Cl)c1ccc(Cl)cc1 | 16 | 222 |  |  |  |  | 
C=C1C2CCC3C(CCC4C35CCC[C@]4(C)CN3CCO[C@H]35)(C2)[C@H]1O (stereo partly specified) | 120 |  |  |  |  |  | 
O=[N+]([O-])c1ccc(N=Nc2ccc(O)cc2O)cc1 | 200 |  |  |  |  |  | 
Clc1cc(Cl)c2ccccc2c1 | 62.3 | 291 |  |  |  |  | 
CCOP(=S)(S)OCC | -10 |  |  |  | not readily biodegradable |  | 
c1ccc(C2=NCCN2)cc1 | 96.5 |  |  |  |  |  | 
Oc1ccccc1S | 5.5 | 217 |  |  |  |  | 
O=C1OCCC1N(C(=O)C1CC1)c1cccc(Cl)c1 (stereo unspecified) | 95 |  |  |  |  |  | 
Cc1ccnc(C)c1C |  | 192 |  |  |  |  | 
COP(=S)(OC)Oc1ccc(S(=O)(=O)N(C)C)cc1 | 53 |  |  |  | readily biodegradable |  | 
O=S(=O)(O)CS(=O)(=O)O | 98 |  |  |  |  |  | 
CCOC(=O)c1cccc(C)c1 |  | 234 |  |  |  |  | 
Oc1ccc(/C=C/c2cc(O)cc(O)c2)cc1 | 254 |  |  |  |  |  | 
COCOC | -105 | 42 | 2.6 | -3.76 |  |  | 
COc1cc(OC)cc(OC)c1 | 54.5 | 256 |  |  |  |  | 
Oc1cccc(Cl)c1O | 48.5 |  |  |  |  |  | 
Nc1cccc([N+](=O)[O-])c1 | 114 | 306 | -4.02 | -8.1 | not readily biodegradable | 1.73 | 
C#CCCCCC#C |  | 136 |  |  |  |  | 
CCO | -114 | 78.2 | 1.77 | -5.3 | readily biodegradable |  | 
CNC(=O)ON=CC(C)(C)SC | 99 |  | -4.46 |  |  | 1.5 | 
O=c1cc[nH]c2cc(C(F)(F)F)ccc12 | 268 |  |  |  |  |  | 
CC(O)=S |  | 93 |  |  |  |  | 
CC(C)OC(=O)C1(S(=O)(=O)c2ccc(Cl)cc2)CCCC1 | 92.5 |  |  |  |  |  | 
CCOC(OCC)(OCC)OCC |  | 160 |  |  |  |  | 

Compound | melting point [°C] | boiling point [°C] | log10 vapour pressure (mmHg) | log10 Henry constant (atm·m³/mol) | ready biodegradability | log10 Koc (L/kg) | log10 Koa
FC(Br)(Br)Br | -73.6 | 108 |  |  |  |  | 
CCCCCCCCCCCCCCCl | 4.9 | 292 | -3.14 |  |  |  | 
NNC(=O)c1ccncc1 | 171 |  |  |  |  |  | 
Cc1nc(=O)c2ccccc2[nH]1 | 232 |  |  |  |  |  | 
O=C(Nc1ccc2ncccc2c1)Nc1ccc2ncccc2c1 | 262 |  |  |  |  |  | 
CCC[C@@H](C)S | -169 | 113 |  |  |  |  | 
Cl.NCc1ccccc1 | 262 |  |  |  |  |  | 
CC(C)(C)OC=O |  | 82.5 |  | -3.16 |  |  | 
C=COC(C)=O | -93.2 | 72.5 | 1.96 |  | readily biodegradable |  | 
CC(C(O)c1ccc(O)cc1)N1CCC(Cc2ccccc2)CC1 (stereo unspecified) | 114 |  |  |  |  |  | 
CC(C)(C)CO | 52.5 | 114 | 1.2 |  |  |  | 
CC(=O)[C@@]1(C)CC[C@H]2[C@@H]3CCC4=CC(=O)CCC4=C3CC[C@@]21C | 106 |  |  |  |  |  | 
COC(=O)C=C(Cl)C(=O)OC |  | 224 |  |  |  |  | 
O=C1c2ccccc2C(=O)c2cc(Br)ccc21 | 206 |  |  |  |  |  | 
Cc1ccccc1C(=O)O | 104 | 259 | -3.18 |  | readily biodegradable |  | 
C1CC2CCC1CC2 |  |  | 0.523 |  |  |  | 
CC(C)COC(=O)CCCCC(=O)OCC(C)C | -20 | 279 |  |  |  |  | 
COCCO |  | 124 | 0.978 | -6.48 | readily biodegradable |  | 
c1cc2c(c3c1CCCC3)CCCC2 | 16.7 | 295 |  |  |  |  | 
Nc1c(Br)cc2c(c1Br)Cc1ccccc1-2 |  |  |  |  | not readily biodegradable |  | 
C1CC[C@H]2CCC[C@@H]2C1 (racemic) | -53 | 167 |  |  |  |  | 
Oc1cccc(S)c1 | 16.5 |  |  |  |  |  | 
CCC(C)COC (stereo unspecified) |  | 90 |  |  |  |  | 
NC(=O)c1ccc([N+](=O)[O-])cc1 | 200 |  |  |  |  | 1.93 | 

Same assay, conditions: fish

Compound | log10 BCF | log10 biotransformation half-life (days)
Oc1c(C2CCCCC2)cccc1C1CCCCC1 | 3.02 | 0.2
CCCCC(C)CCCC(C)C (stereo unspecified) |  | 0.32
CCOP(=S)(S)OCC | 0.7 | 
Nc1cccc([N+](=O)[O-])c1 | 0.48 | -0.77
c1cc2c(c3c1CCCC3)CCCC2 |  | 0.76
